{"source": "patent US11679168B2", "about": "“Caspase-3-triggered molecular self-assembling PET probes and uses thereof” (The Board of Trustees of the Leland Stanford Junior …, priority 2018, dated 2023)", "key": {"[1]": {"system": "H1299 cells", "assay": "Radiotracer uptake in H1299 cells", "type": "cell-based, human", "protocol": "Temporal changes in cell-associated radioactivity in drug-treated cells or vehicle cells were measured with [18F]-C-SNAT4. Data are means±SD (n=3 per group). *, P<0.05; **, P<0.01; ***, P<0.005; *****, P<0.0001.\nRadiotracer uptake in cells: H460 and H1299 cells (2×10^5) were plated in 6-well cell culture plates over night before [^18F]-C-SNAT4 uptake analysis. […] After 24 h treatment, fresh, prewarmed RPMI Medium 1640 containing 1.48 MBq (40 μCi) [^18F]-C-SNAT4 was added to individual wells (1 ml/well; 13.3 pmol). At post 10, 30, 60 min, medium was removed, cells were lifted by trypsinization, and washed three-times with cold PBS. Radioactivity contained in cell pellets was measured using a gamma counter, with counts normalized to total protein concentration as determined by cell digestion using RIPA buffer followed by protein quantitation by the Bradford method. The final radiotracer [^18F]-C-SNAT4 uptake concentration was expressed as μM of % uptake/mg protein. Results were normalized to a vehicle control (PBS for [^18F]-C-SNAT4 experiments at different time-points) which was washed."}, "[2]": {"system": "H460 tumor", "assay": "PET/CT imaging of H460 tumor-bearing mice", "type": "in vivo", "protocol": "(§1) FIGS. 4A and 4D illustrate representative 55- to 60-min axial and sagittal fused PET/CT images. Nude mice received approximately 200 μCi of [18F]-C-SNAT4 via tail vein injection, with PET/CT images acquired at 55 to 60 min after injection. Arrowheads indicate the tumor, identified from the CT images. H460 and H1299 tumor bearing mice were naïve, or 24 h following last dose of cisplatin treatment (Low dose: 3 mg/kg every other day for three times; high dose: 9 mg/kg every other day for three times).\n(§2) Animal model and probe administration: For subcutaneous tumor models, H460 or H1299 (2×10^6 cells in 100 μl of PBS) were injection subcutaneously on the back of female nu/nu nude mice (aged 6 to 8 weeks; Charles River Laboratories). Tumor dimensions were measured periodically using a caliper (by the same researcher), with tumor volumes calculated by the following equation: volume=a×b×c/2, where a, b, and c represent three orthogonal axis of the tumor. Treatment-response analysis was performed 24 h after drug treatment. For all other experiments, animals were culled 26 h after therapy and tissues excised for analysis. For chemotherapy mouse model, tumors were grown to about 150 mm^3, and then treatment that consisted of cisplatin (Sigma-Aldrich; Low dose: 3 mg/kg; high dose: 9 mg/kg) or saline was initiated through intravenous administration, every other day for three times. Total mouse body weight and tumor size were measured every other day. Treat or left untreated. For radiotherapy mouse model, treatment consisted of two fractions of 5 Gy or 2 Gy dose of radiation therapy delivered with a single 225 kV beam using the Kimtron IC 225 irradiator (Kimtron Medical, CT, USA).\n(§3) Small-animal PET/CT imaging and analysis: PET/CT imaging was carried out on a docked Siemens Inveon PET/CT scanner (matrix size, 128×128×159; CT attenuation-corrected; non-scatter corrected) (Siemens Medical Solutions USA) following a bolus intravenous injection of approximately 200 μCi of [^18F]-C-SNAT4 into tumor-bearing mice (n=56, 3-4 mice per group). Dynamic scans were acquired in list mode format over 90 min, and sorted into 22 times of frames, 0.5-mm sinogram bins for image reconstruction (4×15 s, 4×60 s, 11×300 s, 3×600 s). Mice were anesthetized with 2% isoflurane near the center of the FOV to ensure the highest image resolution and sensitivity. Iterative reconstruction was performed using 3D ordered-subsets expectation maximization (3D-OSEM) followed by fast maximum a posteriori (fast MAP) with the following parameters: MAP OSEM iterations, 2; MAP subsets, 16; MAP iterations, 18. Siemens Inveon Research Workplace software v.4.0 was used for visualization of radiotracer uptake in the tumor, to define the three-dimensional (3D) volumes of interest (VOI) and for 3D-visualisation to create volume rendering technique (VRT) images. The relative tumor or organ radioactivity concentrations were from mean pixel values within the multiple ROI volumes. The radioactivity concentration within organs was obtained from mean pixel values with in the VOI and converted to counts per milliliter per min and then divided by the injected dose (ID) to obtain an imaging VOI-derived percentage of the injected radioactive dose per cubic centimeter of tissue (% ID/cc)."}, "[3]": {"system": "H1299 tumor", "assay": "PET/CT imaging of H1299 tumor-bearing mice", "type": "in vivo", "settings": "for radioactivity retention in tumor: 85 min post-injection", "protocol": "as §1, §2, §3"}, "[4]": {"settings": "H460, 2 Gy-treated tumor, [18F]-C-SNAT4 only"}}}
{"smiles": "CCSSCC(NC(=O)C(CC(=O)O)NC(=O)C(NC(=O)C(CCC(=O)O)NC(=O)C(CC(=O)O)NC(C)=O)C(C)C)C(=O)NCC(=O)NC(Cc1cn(CCOCCOCCOCC[18F])nn1)C(=O)NCc1ccc(C(=O)NCCCOc2cnc(C#N)nc2)cc1", "note": "(stereo not drawn) [[^18F]-C-SNAT4]", "values": [{"measurement": "difference in uptake, drug-treated versus untreated", "setting": "[1]; H1299, high dose, 60 min", "result": "no difference"}, {"measurement": "cell uptake", "setting": "[1]; cisplatin high dose (13.5 μM, 24 h) treated H1299, 30 min post incubation", "result": "4.0±0.3 % radioactivity/mg protein"}, {"measurement": "cell uptake", "setting": "[1]; cisplatin low dose (4.5 μM, 24 h) treated H1299, 60 min", "result": "0.3±0.1", "unit": "% uptake/mg protein"}, {"measurement": "cell uptake", "setting": "[1]; control group H1299 (high dose experiment), 30 min post incubation", "result": "2.5±0.6 % radioactivity/mg protein"}, {"measurement": "cell uptake", "setting": "[1]; naïve H1299 (low dose experiment), 60 min", "result": "0.2±0.1", "unit": "% uptake/mg protein"}, {"measurement": "AUC of time activity curve", "setting": "[2]; [4]", "result": "123.6±30.9", "unit": "% ID min/cc"}, {"measurement": "tumor uptake", "setting": "[2]; [4]", "result": "1.2±0.3", "unit": "% ID/cc"}, {"measurement": "AUC of time activity curve", "setting": "[2]; H460, 5 Gy-treated, hot tracer only, t=0 to 85 min", "result": "279.4±16.6", "unit": "% ID min/cc"}, {"measurement": "tumor uptake", "setting": "[2]; H460, high dose cisplatin (9 mg/kg x3) treated, 85 min post-injection", "result": "1.7±0.1", "unit": "% ID/cc"}, {"measurement": "AUC of time activity curve", "setting": "[2]; H460, high dose cisplatin treated, t=0 to 85 min", "result": "148.9±10.1", "unit": "% ID min/cc"}, {"measurement": "tumor uptake", "setting": "[2]; H460, low dose cisplatin (3 mg/kg x3) treated, 85 min post-injection", "result": "1.2±0.1", "unit": "% ID/cc"}, {"measurement": "AUC of time activity curve", "setting": "[2]; H460, low dose cisplatin treated, t=0 to 85 min", "result": "116.7±6.0", "unit": "% ID min/cc"}, {"measurement": "AUC of time activity curve", "setting": "[2]; H460, naive tumor, t=0 to 85 min", "result": "67.5±12.0", "unit": "% ID min/cc"}, {"measurement": "tumor uptake", "setting": "[2]; H460, naïve animals, 85 min post-injection", "result": "0.7±0.11", "unit": "% ID/cc"}, {"measurement": "AUC of time activity curve", "setting": "[2]; H460, naïve tumors (2 Gy experiment)", "result": "92.1±20.9", "unit": "% ID min/cc"}, {"measurement": "tumor uptake", "setting": "[2]; H460, two fractions of 5 Gy, hot tracer only, 85 min post injection", "result": "1.0±0.3", "unit": "% ID/cc"}, {"measurement": "tumor uptake", "setting": "[2]; H460, untreated tumor (2 Gy experiment)", "result": "0.8±0.1", "unit": "% ID/cc"}, {"measurement": "tumor uptake", "setting": "[2]; H460, untreated tumor, hot tracer (mixture comparison), 85 min", "result": "0.4±0.1", "unit": "% ID/cc"}, {"measurement": "AUC of time activity curve", "setting": "[3]; H1299, high doses cisplatin", "result": "64.2±27.8", "unit": "% ID min/cc"}, {"measurement": "radioactivity retention in tumor", "setting": "[3]; H1299, high doses cisplatin", "result": "0.5±0.3", "unit": "% ID/cc"}, {"measurement": "AUC of time activity curve", "setting": "[3]; H1299, low doses cisplatin", "result": "66.0±6.8", "unit": "% ID min/cc"}, {"measurement": "radioactivity retention in tumor", "setting": "[3]; H1299, low doses cisplatin", "result": "0.4±0.2", "unit": "% ID/cc"}, {"measurement": "AUC of time activity curve", "setting": "[3]; H1299, saline", "result": "41.2±25.4", "unit": "% ID min/cc"}, {"measurement": "radioactivity retention in tumor", "setting": "[3]; H1299, saline", "result": "0.4±0.1", "unit": "% ID/cc"}]}
